Assay results taken from ChEMBL document CHEMBL4422639, “Novel 2, 8-bit derivatives of quinolines attenuate Pseudomonas aeruginosa virulence and biofilm formation” (Bioorg Med Chem Lett, 2019).
Active and inactive are the calls of the source. The rule behind the calls is not given here.

How the values were obtained:
Pseudomonas aeruginosa [1] = assay: Antibacterial activity against Pseudomonas aeruginosa PAO1 by standard optical density assay; format: functional, organism-based
[2] = tested on: Pseudomonas aeruginosa PAO1; assay: Inhibition of quorum sensing protein iqs in Pseudomonas aeruginosa PAO1 in phosphate limited medium assessed as reduction in biofilm formation at 10 uM after 18 hrs by crystal violet staining-based assay
[3] = target: T1, Anthranilate--CoA ligase (Pseudomonas aeruginosa (strain ATCC 15692 / DSM 22644 / CIP 104116 /JCM 14847 / LMG 12228 / 1C / PRS 101 / PAO1)) (UniProt Q9I4X3); assay: Inhibition of pqsA in Pseudomonas aeruginosa PAO1 containing […] translational reporter fusion at 20 uM after 16 hrs by LacZ reporter gene assay
T1 sequence (whole entry): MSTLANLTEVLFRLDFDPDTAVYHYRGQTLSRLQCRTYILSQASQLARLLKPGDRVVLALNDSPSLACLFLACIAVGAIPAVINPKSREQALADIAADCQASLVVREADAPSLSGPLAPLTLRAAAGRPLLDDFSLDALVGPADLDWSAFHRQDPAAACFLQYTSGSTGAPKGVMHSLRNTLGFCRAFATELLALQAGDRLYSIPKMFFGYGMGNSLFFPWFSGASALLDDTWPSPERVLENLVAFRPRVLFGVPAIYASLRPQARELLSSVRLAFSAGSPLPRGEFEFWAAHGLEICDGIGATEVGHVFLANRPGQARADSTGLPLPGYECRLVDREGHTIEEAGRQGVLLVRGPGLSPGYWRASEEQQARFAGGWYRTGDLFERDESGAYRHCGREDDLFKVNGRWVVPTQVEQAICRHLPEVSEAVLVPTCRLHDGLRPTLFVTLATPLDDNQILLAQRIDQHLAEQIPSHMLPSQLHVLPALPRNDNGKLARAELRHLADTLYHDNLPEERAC

[4] = target: Elastase (Pseudomonas aeruginosa (strain ATCC 15692 / PAO1 / 1C / PRS 101 / LMG12228)) (UniProt P14756); assay: Inhibition of lasB in Pseudomonas aeruginosa PAO1 containing lasB-lacZ translational reporter fusion at 20 uM after 16 hrs by LacZ reporter gene assay
[5] = target: 3-(3-hydroxydecanoyloxy)decanoate synthase (Pseudomonas aeruginosa (strain ATCC 15692 / PAO1 / 1C / PRS 101 / LMG12228)) (UniProt Q51559); assay: Inhibition of rhlA in Pseudomonas aeruginosa PAO1 assessed as decrease in rhamnolipid production at 10 uM after 16 hrs by standard optical density assay
[6] = tested on: Pseudomonas aeruginosa PAO1; assay: Inhibition of PQS in Pseudomonas aeruginosa PAO1 assessed as decrease in pyocyanin production at 10 uM after 16 hrs by standard optical density assay
[7] = target: 3-(3-hydroxydecanoyloxy)decanoate synthase (Pseudomonas aeruginosa (strain ATCC 15692 / PAO1 / 1C / PRS 101 / LMG12228)) (UniProt Q51559); assay: Inhibition of rhlA in Pseudomonas aeruginosa PAO1 containing […] translational reporter fusion at 20 uM after 16 hrs by LacZ reporter gene assay
Pseudomonas aeruginosa [8] = assay: Antibiofilm activity against Pseudomonas aeruginosa PAO1 at 10 uM after 18 hrs by crystal violet staining-based assay; format: functional, organism-based

Elastase (Pseudomonas aeruginosa (strain ATCC 15692 / PAO1 / 1C / PRS 101 / LMG12228)), sequence (P14756 198-498 limits assumed): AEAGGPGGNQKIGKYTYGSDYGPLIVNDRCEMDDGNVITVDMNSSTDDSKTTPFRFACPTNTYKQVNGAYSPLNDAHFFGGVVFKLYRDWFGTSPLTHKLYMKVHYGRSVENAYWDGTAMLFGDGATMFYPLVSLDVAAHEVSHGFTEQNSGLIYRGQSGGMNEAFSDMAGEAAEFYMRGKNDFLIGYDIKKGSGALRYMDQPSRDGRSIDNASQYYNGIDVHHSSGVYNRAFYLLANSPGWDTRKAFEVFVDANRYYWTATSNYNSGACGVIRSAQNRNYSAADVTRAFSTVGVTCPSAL

SMILES | MIC (Pseudomonas aeruginosa [1]) [µM] | Activity (Pseudomonas aeruginosa [8]) | other results
CCCCCCC(=O)Oc1cccc2ccc(-c3ccc(F)cc3)nc12 | > 256 |  | 
Cc1ccc(C(=O)Oc2cccc3ccc(-c4cccc(C(F)(F)F)c4)nc23)cc1 | > 256 | Active | 
CCC(=O)Oc1cccc2ccc(-c3ccc(C(F)(F)F)cc3)nc12 | > 256 | Active | 
O=C(Oc1cccc2ccc(-c3ccc(C(F)(F)F)cc3)nc12)c1ccc(Cl)cc1 | > 256 | Active | 
COc1ccc(C(=O)Oc2cccc3ccc(-c4ccc(C(F)(F)F)cc4)nc23)cc1 | > 256 | Active | 
CCCCCC(=O)Oc1cccc2ccc(-c3cccc(C(F)(F)F)c3)nc12 | > 256 | Active | 
CCCC(=O)Oc1cccc2ccc(-c3ccc(C(F)(F)F)cc3)nc12 | > 256 | Active | 
O=C(Oc1cccc2ccc(-c3cccc(C(F)(F)F)c3)nc12)c1ccco1 | > 256 | Active | 
O=C(Oc1cccc2ccc(-c3cccc(C(F)(F)F)c3)nc12)c1ccccc1 | > 256 | Active | 
Cc1ccc(C(=O)Oc2cccc3ccc(-c4ccc(C(F)(F)F)cc4)nc23)cc1 | > 256 | Active | 
CC(=O)Oc1cccc2ccc(-c3ccc(C(F)(F)F)cc3)nc12 | > 256 | Active | 
CCCCC(=O)Oc1cccc2ccc(-c3ccc(C(F)(F)F)cc3)nc12 | > 256 | Active | 

Now from value to compound, other results behind:

MIC (Pseudomonas aeruginosa [1]) [µM] | SMILES | Activity (Pseudomonas aeruginosa [8]) | other results
> 256 | COc1ccc(C(=O)Oc2cccc3ccc(-c4cccc(C(F)(F)F)c4)nc23)cc1 | Active | inhibition [2]: inactive; inhibition [3]: inactive; inhibition [4]: inactive; inhibition [5]: Active; inhibition [6]: inactive; inhibition [7]: Active
> 256 | O=C(Oc1cccc2ccc(-c3ccc(C(F)(F)F)cc3)nc12)c1ccco1 | Active | 
> 256 | CCCCCCC(=O)Oc1cccc2ccc(-c3ccc(C(F)(F)F)cc3)nc12 | Active | inhibition [2]: inactive; inhibition [3]: inactive; inhibition [4]: inactive; inhibition [5]: Active; inhibition [6]: inactive; inhibition [7]: Active
> 256 | O=C(Oc1cccc2ccc(-c3cccc(C(F)(F)F)c3)nc12)c1ccc(Cl)cc1 | Active | 
> 256 | O=C(Oc1cccc2ccc(-c3ccc(C(F)(F)F)cc3)nc12)c1ccccc1 | Active | 
> 256 | CCCCCCC(=O)Oc1cccc2ccc(-c3cccc(C(F)(F)F)c3)nc12 | Active | 
> 256 | Oc1cccc2ccc(-c3ccc(C(F)(F)F)cc3)nc12 | Active | 
> 256 | CCCCCC(=O)Oc1cccc2ccc(-c3ccc(C(F)(F)F)cc3)nc12 | Active | 
> 256 | CCCCCCC(=O)Oc1cccc2ccc(-c3cc(C(F)(F)F)cc(C(F)(F)F)c3)nc12 |  | 
